Data set [1] in a line: Acute toxicity assessed intravenously in mice (method of Miller and Tainter). Particulars: mouse, in vivo; for LD50: read-out: Acute toxicity LD 50.
In data set [2] the test system is S.H.R. rats (genetically hypertensive). As to the kind of experiment: Antihypertensive activity by oral administration to S.H.R. rats (genetically hypertensive). Format: in vivo. On the procedure: The arterial blood pressure was recorded on an APELAB-BP recorder 8002-and an electromechanical counter provided a direct reading of the heartbeat rate. The measurements were taken at 0 hour, 2 hours, 4 hours, 6 hours and 24 hours after administration of the compounds tested.
To illustrate the invention, the results obtained with some of the compounds of the invention are shown in Table II below in which the symbols AHY, ΔPA and ΔFC have the following meanings:
AHY=% of rats whose arterial blood pressure drops by a value greater than or equal to 20% of the initial value or is brought down to a value less than 150 mmHg,
ΔPA=% variation of the arterial blood pressure in all the animals tested with respect to the initial blood pressure,
ΔFC=% variation of the heart-beat rate of all the animals tested with respect to the initial rate.

Where [3] appears, read: iv, 200 mg/kg, i.v., read-out: Acute toxicity (mice), % at 200 mg/kg i.v. (printed "at 200 (0%)").
Where [4] appears, read: po, 1000 mg/kg, p.o., read-out: Acute toxicity (mice), % at 1000 (p.o.).
The mark [5] stands for this setting: dose 50, 4 hours after administration.
[6] abbreviates: dose 50, 6 hours after administration.
The mark [7] stands for this setting: dose 50, 24 hours after administration.

Read-outs that look alike come from different tables or passages of the source.

For `c1cc(N2CCNCC2)c2nc[nH]c2c1` [Code No. 1, (piperazino-1)-4(7) benzimidazole, tribromhydrate], the LD50 in data set [1] (iv) came to 125 mg/kg.

With `CC(C)C(=O)N1CCN(c2cccc3[nH]cnc23)CC1` [Code No. 3], the mortality in data set [1] (setting [3]) is 0%.

On to `O=C(c1cccs1)N1CCN(c2cccc3[nH]cnc23)CC1` [Code No. 7], for which the mortality in data set [1] (setting [3]) was 0%.

Consider `C=C(C)COC(=O)N1CCN(c2cccc3[nH]cnc23)CC1` [Code No. 17], for which the mortality in data set [1] (setting [3]) is 0%.

As to `CSc1nnc(C(=O)N2CCN(c3cccc4[nH]cnc34)CC2)o1` [compound 12], the mortality in data set [1] (setting [4]) amounted to 0%.

On to `CCOC(=O)N1CCN(c2cccc3[nH]cnc23)CC1` [compound 13], for which the LD50 in data set [1] (iv) worked out at 160 mg/kg.

In the case of `CC(C)COC(=O)N1CCN(c2cccc3[nH]cnc23)CC1` [compound 21], the LD50 in data set [1] (iv) is 195 mg/kg.

In the case of `c1ccc(SN2CCN(c3cccc4[nH]cnc34)CC2)cc1` [compound 24], the mortality in data set [1] (setting [4]) stood at 0%.

Consider `CCOC(=O)N1CCN(c2ncnc3nc[nH]c23)CC1` [compound 25], for which the mortality in data set [1] (setting [3]) is 0%.

`CCOC(=O)N1CCN(c2cccc3[nH]c(C)nc23)CC1` [compound 26]: the LD50 in data set [1] (iv) came to 200 mg/kg.

With `CCOC(=O)C1CCN(c2cccc3[nH]cnc23)CC1` [compound 30], in data set [1] (iv), the LD50 came out at 185 mg/kg.

In the case of `c1cc(N2CCNCC2)c2nn[nH]c2c1` [compound 39], in data set [1] (iv), the LD50 is 96 mg/kg.

`c1cc(N2CCNCC2)c2cc[nH]c2c1` [compound 41]: the LD50 in data set [1] (iv) turned out to be 35 mg/kg.

Turning to `c1cc(N2CCNCC2)c2[nH]ccc2c1` [compound 42], the LD50 in data set [1] (iv) amounted to 70 mg/kg.

As for “(benzyloxycarbonyl-4 piperazino-1)-4 indole [Code No. 40]”, in data set [2] (setting [5]), the “AHY (% of rats whose arterial blood pressure drops by ≥20% of initial value or to <150 mmHg)” value is 86%, the “ΔFC (% variation of the heart-beat rate vs initial)” value is recorded as -11% and the “ΔPA (% variation of the arterial blood pressure vs initial)” value is on record as -23%. Besides, in data set [2] (setting [6]), the “AHY (% of rats whose arterial blood pressure drops by ≥20% of initial value or to <150 mmHg)” value came to 86%, the “ΔFC (% variation of the heart-beat rate vs initial)” value is on record as -8% and the “ΔPA (% variation of the arterial blood pressure vs initial)” value is reported as -23%. Moreover, in data set [2] (setting [7]), the “AHY (% of rats whose arterial blood pressure drops by ≥20% of initial value or to <150 mmHg)” value is on record as 0%, the “ΔFC (% variation of the heart-beat rate vs initial)” value is given as -9% and the “ΔPA (% variation of the arterial blood pressure vs initial)” value is listed as -2%.

Turning to “(carbethoxy-4 piperazino-1)-4(7) benzimidazole, maleate [Code No. 13]”, in data set [2] (setting [6]), the “AHY (% of rats whose arterial blood pressure drops by ≥20% of initial value or to <150 mmHg)” value came to 71%, the “ΔFC (% variation of the heart-beat rate vs initial)” value is listed as 0% and the “ΔPA (% variation of the arterial blood pressure vs initial)” value was -19%. Besides, in data set [2] (setting [7]), the “AHY (% of rats whose arterial blood pressure drops by ≥20% of initial value or to <150 mmHg)” value is on record as 28%, the “ΔFC (% variation of the heart-beat rate vs initial)” value was -7% and the “ΔPA (% variation of the arterial blood pressure vs initial)” value is given as -9%.

Turning to “(carbethoxy-4 piperazino-1)-6 purine [Code No. 25]”, in data set [2] (setting [5]), the “AHY (% of rats whose arterial blood pressure drops by ≥20% of initial value or to <150 mmHg)” value is recorded as 14%, the “ΔFC (% variation of the heart-beat rate vs initial)” value is listed as -5% and the “ΔPA (% variation of the arterial blood pressure vs initial)” value is recorded as -8%. In data set [2] (setting [6]), the “AHY (% of rats whose arterial blood pressure drops by ≥20% of initial value or to <150 mmHg)” value was found to be 57%, the “ΔFC (% variation of the heart-beat rate vs initial)” value is recorded as “+1%” and the “ΔPA (% variation of the arterial blood pressure vs initial)” value is reported as -14%. For the same molecule, in data set [2] (setting [7]), the “AHY (% of rats whose arterial blood pressure drops by ≥20% of initial value or to <150 mmHg)” value amounted to 43%, the “ΔFC (% variation of the heart-beat rate vs initial)” value was -4% and the “ΔPA (% variation of the arterial blood pressure vs initial)” value is -9%.

Regarding “(piperazino-4 (7) benzotriazole, dihydrochloride [Code No. 39]”, the entries for the “AHY (% of rats whose arterial blood pressure drops by ≥20% of initial value or to <150 mmHg)” value in data set [2] (setting [5]) and in data set [2] (setting [6]) were 33% and 67%, respectively. In addition, the “ΔPA (% variation of the arterial blood pressure vs initial)” value in data set [2] (setting [5]) is -15%; in data set [2] (setting [6]), -21%. Besides, the “ΔFC (% variation of the heart-beat rate vs initial)” value in data set [2] (setting [6]) is recorded as “+3%”; in data set [2] (setting [7]), 0%.

These data come from patent US4459296A, “Piperazines and homopiperazines, N-substituted by an aromatic heterocyclic group, and their use in therapeutics” (Delalande S.A., priority 1982, dated 1984).
